According to patent US6420424B1, “CCR-3 receptor antagonists” (SmithKline Beecham Corporation, priority 1998, dated 2002):

With `CCOC(=O)[C@H](Cc1ccc(N)cc1)NC(=O)c1ccccc1` [Example 6, (S)-Ethyl-2-benzoylamino-3-(4-aminophenyl)propionate] as the compound, how does the melting point read?
The melting point was 120 to 122 °C.
